According to ChEMBL document CHEMBL5113493, “4th generation nonsteroidal aromatase inhibitors: An iterative SAR-guided design, synthesis, and biological evaluation towards picomolar dual binding inhibitors” (Eur J Med Chem, 2022):

Columns and labels:
MCF-10A = assay: Cytotoxicity against human MCF-10A cells at 1 uM measured after 48 hrs by BrdU colorimetric immunoassay; type: toxicity, cell-based
MDA-MB-231 = assay: Cytotoxicity against human MDA-MB-231 cells at 1 uM measured after 48 hrs by BrdU colorimetric immunoassay; type: toxicity, cell-based; conditions: mda-mb-231, 48 h
Aromatase = biological target: T1, Aromatase (Homo sapiens, UniProt P11511); type: cell-based, JEG-3
T1 sequence (P11511 whole entry): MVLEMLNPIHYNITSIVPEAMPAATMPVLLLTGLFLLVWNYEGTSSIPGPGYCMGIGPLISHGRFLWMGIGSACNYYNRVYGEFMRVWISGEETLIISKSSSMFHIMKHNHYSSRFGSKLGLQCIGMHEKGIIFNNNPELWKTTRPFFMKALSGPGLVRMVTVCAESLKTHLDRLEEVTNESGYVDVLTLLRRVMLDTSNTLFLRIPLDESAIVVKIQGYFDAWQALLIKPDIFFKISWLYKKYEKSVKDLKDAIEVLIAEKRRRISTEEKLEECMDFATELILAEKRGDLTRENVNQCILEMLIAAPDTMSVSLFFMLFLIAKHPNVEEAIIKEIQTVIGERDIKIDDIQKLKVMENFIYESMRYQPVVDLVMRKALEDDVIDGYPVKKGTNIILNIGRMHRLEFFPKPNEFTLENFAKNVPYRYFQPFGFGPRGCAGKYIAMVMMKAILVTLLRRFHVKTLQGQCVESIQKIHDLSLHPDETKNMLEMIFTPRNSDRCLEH

Cytochrome P450 3A4 = Cytochrome P450 3A4 (Homo sapiens, UniProt P08684)
Cytochrome P450 3A4, sequence (P08684 whole entry): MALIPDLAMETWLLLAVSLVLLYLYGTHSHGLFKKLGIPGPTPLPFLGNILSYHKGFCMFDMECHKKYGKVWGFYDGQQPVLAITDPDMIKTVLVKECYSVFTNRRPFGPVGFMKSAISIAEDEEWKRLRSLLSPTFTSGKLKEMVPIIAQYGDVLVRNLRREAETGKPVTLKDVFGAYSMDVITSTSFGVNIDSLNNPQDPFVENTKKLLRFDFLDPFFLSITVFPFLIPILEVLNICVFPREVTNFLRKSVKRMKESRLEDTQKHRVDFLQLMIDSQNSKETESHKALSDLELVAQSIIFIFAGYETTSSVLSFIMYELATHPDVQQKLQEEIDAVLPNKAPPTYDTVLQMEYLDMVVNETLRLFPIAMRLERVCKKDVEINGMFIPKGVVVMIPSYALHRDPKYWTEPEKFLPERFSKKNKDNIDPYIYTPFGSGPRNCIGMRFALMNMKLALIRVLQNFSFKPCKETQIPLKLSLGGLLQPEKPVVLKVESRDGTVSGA

Cytochrome P450 2C9 = Cytochrome P450 2C9 (Homo sapiens, UniProt P11712)
Cytochrome P450 2C9, sequence (P11712 whole entry): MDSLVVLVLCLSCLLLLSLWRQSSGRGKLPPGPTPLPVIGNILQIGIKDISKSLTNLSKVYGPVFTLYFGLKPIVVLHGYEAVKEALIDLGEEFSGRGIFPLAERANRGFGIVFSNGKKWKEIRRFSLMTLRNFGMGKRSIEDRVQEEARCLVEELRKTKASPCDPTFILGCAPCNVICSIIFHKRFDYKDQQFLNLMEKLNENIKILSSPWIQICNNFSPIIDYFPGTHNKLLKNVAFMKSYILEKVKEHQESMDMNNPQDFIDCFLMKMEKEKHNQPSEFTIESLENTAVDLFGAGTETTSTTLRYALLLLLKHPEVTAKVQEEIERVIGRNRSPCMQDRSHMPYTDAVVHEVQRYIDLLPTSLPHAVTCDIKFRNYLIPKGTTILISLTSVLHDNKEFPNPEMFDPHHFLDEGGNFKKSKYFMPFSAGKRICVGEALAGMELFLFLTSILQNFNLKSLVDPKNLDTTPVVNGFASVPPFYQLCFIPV

Cytochrome P450 1A2 = biological target: T2, Cytochrome P450 1A2 (Homo sapiens, UniProt P05177)
T2 sequence (P05177 whole entry): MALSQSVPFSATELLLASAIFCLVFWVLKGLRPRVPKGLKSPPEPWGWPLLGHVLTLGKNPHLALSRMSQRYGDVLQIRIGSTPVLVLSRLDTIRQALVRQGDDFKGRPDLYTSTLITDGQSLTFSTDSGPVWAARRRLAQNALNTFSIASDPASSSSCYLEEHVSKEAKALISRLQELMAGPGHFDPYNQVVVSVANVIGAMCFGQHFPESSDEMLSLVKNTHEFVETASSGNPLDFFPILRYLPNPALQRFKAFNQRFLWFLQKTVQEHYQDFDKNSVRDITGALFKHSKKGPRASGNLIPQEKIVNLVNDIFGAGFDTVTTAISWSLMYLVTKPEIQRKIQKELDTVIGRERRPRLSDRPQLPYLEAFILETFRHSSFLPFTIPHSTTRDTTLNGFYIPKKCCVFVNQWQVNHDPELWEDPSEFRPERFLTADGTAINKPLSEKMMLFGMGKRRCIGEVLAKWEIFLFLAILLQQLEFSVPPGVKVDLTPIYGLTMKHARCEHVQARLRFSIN

Cytochrome P450 2C19 = Cytochrome P450 2C19 (Homo sapiens, UniProt P33261)
Cytochrome P450 2C19, sequence (P33261 whole entry): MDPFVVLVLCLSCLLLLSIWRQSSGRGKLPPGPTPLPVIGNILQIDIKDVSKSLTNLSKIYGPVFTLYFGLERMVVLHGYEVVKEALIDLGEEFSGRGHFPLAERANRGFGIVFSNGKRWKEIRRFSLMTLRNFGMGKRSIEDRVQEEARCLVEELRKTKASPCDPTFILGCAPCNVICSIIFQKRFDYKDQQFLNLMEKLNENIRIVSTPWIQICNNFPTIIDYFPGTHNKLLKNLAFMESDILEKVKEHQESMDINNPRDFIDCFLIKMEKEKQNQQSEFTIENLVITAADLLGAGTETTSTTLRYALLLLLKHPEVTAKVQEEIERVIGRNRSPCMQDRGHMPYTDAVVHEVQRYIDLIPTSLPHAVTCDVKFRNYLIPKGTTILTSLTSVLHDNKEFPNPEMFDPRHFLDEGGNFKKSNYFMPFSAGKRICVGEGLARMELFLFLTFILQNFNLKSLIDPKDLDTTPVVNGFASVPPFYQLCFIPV

Cytochrome P450 2D6 = Cytochrome P450 2D6 (Homo sapiens, UniProt P10635)
Cytochrome P450 2D6, sequence (P10635 whole entry): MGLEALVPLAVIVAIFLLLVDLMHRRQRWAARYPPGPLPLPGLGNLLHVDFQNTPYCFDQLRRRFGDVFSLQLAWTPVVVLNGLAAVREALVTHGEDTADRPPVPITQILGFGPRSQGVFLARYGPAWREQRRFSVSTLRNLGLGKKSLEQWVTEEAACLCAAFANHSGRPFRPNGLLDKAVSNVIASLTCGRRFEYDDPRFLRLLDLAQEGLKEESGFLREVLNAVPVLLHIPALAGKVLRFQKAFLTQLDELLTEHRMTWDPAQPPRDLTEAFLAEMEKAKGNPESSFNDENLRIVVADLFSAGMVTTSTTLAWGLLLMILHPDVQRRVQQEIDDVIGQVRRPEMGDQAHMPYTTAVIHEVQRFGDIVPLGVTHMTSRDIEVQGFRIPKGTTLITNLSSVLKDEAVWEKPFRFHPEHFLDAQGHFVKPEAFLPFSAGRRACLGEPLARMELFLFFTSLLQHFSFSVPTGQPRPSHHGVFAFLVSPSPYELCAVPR

Structure (SMILES)	IC50 (Aromatase) [nM]	further results
COc1ccc2cc(C(c3ccc(F)cc3)n3cncn3)oc2c1 (stereo not drawn)	–	Activity (MCF-10A): Non-Toxic; Activity (MDA-MB-231): Non-Toxic
CCC#CCOc1ccc2c(=O)c3ccc(Cn4ccnc4)cc3oc2c1	0.01	–
CCC#CCOc1cc(Cn2ccnc2)c2oc3ccccc3c(=O)c2c1	0.77	–
CCC#CCOc1cc(Cn2ccnc2)c2c(=O)c3ccccc3oc2c1	0.01	–
CC#CCOc1ccc2cc(C(c3ccc(F)cc3)n3cncn3)oc2c1 (stereo not drawn)	4.1	–
CC#CCOc1ccc2cc(C(c3ccc(Cl)cc3)n3cncn3)oc2c1 (stereo not drawn)	0.53	–
Oc1ccc(C(c2cc3cc(Cl)ccc3o2)n2cncn2)cc1 (stereo not drawn)	30.3	–
Oc1ccc2cc(C(c3ccc(F)cc3)n3cncn3)oc2c1 (stereo not drawn)	0.39	Activity (MCF-10A): Non-Toxic; Activity (MDA-MB-231): Non-Toxic
CCC#CCOc1ccc2cc(C(c3ccc(F)cc3)n3cncn3)oc2c1 (stereo not drawn)	0.51	Activity (MCF-10A): Non-Toxic; Activity (MDA-MB-231): Non-Toxic
CCC#CCOc1ccc(C(c2cc3cc(Cl)ccc3o2)n2cncn2)cc1 (stereo not drawn)	> 1000	–
Oc1ccc2oc(C(c3ccc(Cl)cc3)n3cncn3)cc2c1 (stereo not drawn)	5.67	–
CCC#CCOc1ccc2cc(C(c3ccc(C#N)cc3)n3cncn3)oc2c1 (stereo not drawn)	0.72	–
CCOc1ccc2cc(C(c3ccc(Cl)cc3)n3cncn3)oc2c1 (stereo not drawn)	0.46	–
COc1ccc(C(c2cc3cc(Cl)ccc3o2)n2cncn2)cc1 (stereo not drawn)	> 1000	–
COc1ccc2oc(C(c3ccc(Cl)cc3)n3cncn3)cc2c1 (stereo not drawn)	2.01	–
C#CCOc1ccc2cc(C(c3ccc(Cl)cc3)n3cncn3)oc2c1 (stereo not drawn)	1.03	–
CC#CCOc1ccc2cc(C(c3ccc(C#N)cc3)n3cncn3)oc2c1 (stereo not drawn)	0.09	IC50 (Cytochrome P450 3A4): > 25000 nM; IC50 (Cytochrome P450 2C9): > 25000 nM; IC50 (Cytochrome P450 1A2): 2880 nM; Activity (MCF-10A): Non-Toxic; IC50 (Cytochrome P450 2C19): 2170 nM; IC50 (Cytochrome P450 2D6): > 25000 nM; Activity (MDA-MB-231): Non-Toxic
CCC#CCOc1ccc2oc(C(c3ccc(Cl)cc3)n3cncn3)cc2c1 (stereo not drawn)	21	–
CCC#CCOc1ccc2cc(C(c3ccc(Cl)cc3)n3cncn3)oc2c1 (stereo not drawn)	2.76	–
COc1cccc2c1C(=O)c1c(O)c3c(c(O)c1C2=O)C[C@@](O)(C(=O)CO)C[C@@H]3O[C@H]1C[C@H](N)[C@H](O)[C@H](C)O1 [DOXORUBICIN]	–	Activity (MCF-10A): Non-Toxic; Activity (MDA-MB-231): Non-Toxic
